What is called IC50 is the point on the concentration scale where inhibition reaches its midpoint. By CC50 is commonly meant the concentration at which the toxic effect on the cells reaches its halfway point. As usually defined, the EC50 is the concentration giving half of the maximal effect. What is called AC50 is the midpoint of the concentration-response curve, whichever way the signal moves.

Here are results for seven molecules from ChEMBL document CHEMBL1201862, “PubChem BioAssay data set” (2004).

The source made the active and inactive calls.

For test [1], the target named is T1, Calpain-2 catalytic subunit (Sus scrofa, UniProt P43367).
T1 sequence (P43367 whole entry): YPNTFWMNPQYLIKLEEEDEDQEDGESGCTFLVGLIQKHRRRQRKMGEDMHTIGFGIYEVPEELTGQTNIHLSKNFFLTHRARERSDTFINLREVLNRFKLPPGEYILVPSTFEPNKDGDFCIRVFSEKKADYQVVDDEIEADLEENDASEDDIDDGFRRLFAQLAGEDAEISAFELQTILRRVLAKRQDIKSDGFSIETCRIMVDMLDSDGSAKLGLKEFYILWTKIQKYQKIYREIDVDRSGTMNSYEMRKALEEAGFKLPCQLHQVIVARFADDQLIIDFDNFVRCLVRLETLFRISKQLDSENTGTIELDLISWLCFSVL
The experiment in a line: m-calpain protease blockers, concentration series – biochemical, fluorogenic peptide substrate, dose response (AID 1420). The test is classed as functional.

For another test, the target named is X-box-binding protein 1 (Homo sapiens, UniProt P17861). The test is classed as functional, Cricetulus griseus.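 Further: confirmatory dose-response counter-screen serving a CHOP assay.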
For another test, the system named is Vero. The experiment in a line: viability of Vero cells under compound – cytotoxicity control for flavivirus capping enzyme inhibitors (AID 588742). The test is classed as functional. The following applies: Chlorocebus sabaeus.
Test [2] can be described thus: viability loss in HeLa cells – cytotoxicity control for MgcRacGAP inhibitor project, dose response (AID 624300). The test is classed as functional.
Test [3] has as its target T2, Rac GTPase-activating protein 1 (Homo sapiens, UniProt Q9H0H5).
T2 sequence (Q9H0H5 whole entry): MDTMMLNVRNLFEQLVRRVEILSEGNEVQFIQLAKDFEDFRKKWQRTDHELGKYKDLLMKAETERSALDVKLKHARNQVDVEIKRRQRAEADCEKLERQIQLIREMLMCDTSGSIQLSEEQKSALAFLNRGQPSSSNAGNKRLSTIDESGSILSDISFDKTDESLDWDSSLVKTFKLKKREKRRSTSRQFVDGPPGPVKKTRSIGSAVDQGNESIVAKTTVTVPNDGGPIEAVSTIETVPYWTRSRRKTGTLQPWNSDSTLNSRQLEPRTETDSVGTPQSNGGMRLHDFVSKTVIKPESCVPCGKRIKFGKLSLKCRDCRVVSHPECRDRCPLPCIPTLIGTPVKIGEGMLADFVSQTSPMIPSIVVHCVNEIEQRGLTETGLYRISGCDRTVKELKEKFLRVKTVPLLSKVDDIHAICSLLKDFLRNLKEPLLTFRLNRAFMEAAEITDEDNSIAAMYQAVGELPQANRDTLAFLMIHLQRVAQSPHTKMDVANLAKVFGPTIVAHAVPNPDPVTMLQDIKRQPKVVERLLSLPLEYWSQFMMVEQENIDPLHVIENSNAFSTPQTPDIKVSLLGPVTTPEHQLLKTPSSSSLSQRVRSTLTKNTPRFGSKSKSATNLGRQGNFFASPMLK
The test is described as follows: blockers of MgcRacGAP-driven Rac1 GTP hydrolysis – biochemical, ADP Hunter fluorescence, primary and confirmatory, confirmation (AID 624330). The test is classed as functional.

For another test, the target named is Protein Tat (Human immunodeficiency virus type 1 group M subtype B (isolate HXB2)(HIV-1), UniProt P04608). The test is classed as functional.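 Further: tat binding to TAR RNA read out by fluorescence polarization.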
Test [4] is described as follows: viability loss in THP-1 monocytes – THP-1 cells, cytotoxicity control for Vif-APOBEC3G degradation inhibitor project, dose response (AID 1117359). In kind it is functional. The following applies: THP-1.
Test [5] is described as follows: viability loss in Vero cells – cytotoxicity control for Vif-APOBEC3G degradation inhibitor project, dose response (AID 1117358). The test is classed as functional. To be noted: Vero.
The subject of test [6] is BJ. The test is described as follows: BJ-TERT fibroblast viability loss – cell-based, RAS-independent, luminescence, dose response (AID 1933). To be noted: Homo sapiens. The test is classed as functional.
The subject of test [7] is BJ. The test is described as follows: cells. The test is classed as functional, cell-based. The following applies: Homo sapiens.
The subject of test [8] is BJ. The experiment in a line: BJ-TERT-LT-ST fibroblast viability loss – cell-based, RAS-independent, luminescence, dose response (AID 1935).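 Further: BJ fibroblasts immortalized with TERT plus LT and ST oncogenes.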 The test is classed as functional. The following applies: Homo sapiens.
The nature of test [9]: DRD fibroblast viability loss – cell-based, non-viral oncogenic, luminescence, dose response (AID 1934). The test is classed as functional. To be noted: Homo sapiens.
Test [10] in a line: cells. To be noted: A549.
Test [11] can be described thus: cells. To be noted: HEK293.
The nature of test [12]: viability of uninfected HEp-2 cells – cell-based, HTS, cytotoxicity control for RSV inhibitor project, dose response (AID 2410). The test is classed as functional. To be noted: human respiratory syncytial virus.
Test [13] in a line: miR-122 quantity in Huh7 after inhibitor exposure – cell-based, RT-qPCR, dry powder, orthogonal assay for miR-122 inhibitor project, dose response (AID 687041). The test is classed as functional.
A short description of test [14]: cells.
A short description of test [15]: M. tuberculosis H37Rv growth inhibitors, H37Rv strain (AID 1626). The test is classed as functional.
Another test concerns H9c2. The experiment in a line: cells. In kind it is functional, cell-based. To be noted: Rattus norvegicus, H9c2, Myocardium.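 Further: confirmatory concentration-response retest of ultra-high-throughput screening hits for modulation of myocardial damage; cell death induced by hydrogen peroxide oxidative stress; compound pretreatment for 60 min then peroxide exposure for 2 h; potency is for protecting the cells against peroxide damage rather than for killing them.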
Test [16] can be described thus: IC50 of Artemis nuclease activity blockers – biochemical, fluorescence intensity, dose response (AID 720701).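 Further: Artemis endonuclease enzyme.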 In kind it is functional.
Test [17] in a line: Late stage results for the probe development effort to identify inhibitors of Plasmodium falciparum gametocytes: Luminescence-based cell-based high throughput dose response assay to identify inhibitors of viability of late stage Plasmodium falciparum gametocytes. The test is classed as functional.
In test [18] the target is Potassium channel subfamily K member 9 (Homo sapiens, UniProt Q9NPC2). The experiment in a line: KCNK9 flux blockade, concentration-response – cell-based, FluxOR thallium flux, selectivity assay for TASK1 inhibitor project, SAR follow-up (AID 652211).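 Further: potency is for inhibitors of the channel.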 The test is classed as functional.
The target in test [19] is Potassium channel subfamily K member 3 (Rattus norvegicus, UniProt O54912). The experiment in a line: SAR analysis for the identification of selective inhibitors of the two-pore domain potassium channel TASK1(KCNK3):Automated Electrophysiology. In kind it is functional.
Test [20] has as its target Potassium channel subfamily K member 3 (Homo sapiens, UniProt O14649). The test is described as follows: inhibition of human KCNK3 channel flux – CHO cells, FluxOR thallium flux, SAR follow-up (AID 652212). In kind it is functional.
The target of the next test is Paired box protein Pax-8 (Homo sapiens, UniProt Q06710). The test is described as follows: PAX8 transcriptional activity inhibition in RMG-I – RMG-I cells, luciferase, cherry-pick, dose response (AID 687027).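 Further: luciferase reporter driven by Pax8 target thyroperoxidase promoter measured by SteadyGlo luminescence.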 In kind it is functional, cell-based.
The nature of test [21]: toxicity toward immortalized ovarian surface epithelium – cell-based, plate reader, dry powder samples, cytotoxicity control for PAX8 inhibitor project, dose response (AID 743045). The test is classed as functional.
Test [22] in a line: reduced cellular PGC1a acetyl-lysine signal – cell-based, cherry-picked samples, dose response (AID 720514).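 Further: potency may reflect raised or lowered acetylation signal.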 In kind it is functional.
The nature of test [23]: OVCAR-3 cell viability loss – plate reader, dry powder samples, PAX8 inhibitor project, dose response (AID 743044). The test is classed as functional, cell-based.
The nature of test [24]: general cell-killing toxicity readout – plate reader, dry powder samples, cytotoxicity control for PAX8 inhibitor project, dose response (AID 743021). In kind it is functional, cell-based.
The nature of test [25]: OVCAR8 cell viability loss – plate reader, dry powder samples, PAX8 project, dose response (AID 743197). In kind it is functional, cell-based. The following applies: OVCAR-8.
A short description of test [26]: P. falciparum Dd2 growth inhibitors, dose response, SYBR Green, cherry-picked samples (AID 1159567). In kind it is functional, cell-based.
Test [27] can be described thus: toxicity to human hepatoma HepG2 cells – cell-based, cherry-picked samples, cytotoxicity control, dose response (AID 1159577). The test is classed as functional.
The nature of test [28]: A2780 cell killing – plate reader, dry powder samples, cytotoxicity control, dose response (AID 743046). The test is classed as functional, cell-based.

Sequence of Paired box protein Pax-8 (Q06710 whole entry): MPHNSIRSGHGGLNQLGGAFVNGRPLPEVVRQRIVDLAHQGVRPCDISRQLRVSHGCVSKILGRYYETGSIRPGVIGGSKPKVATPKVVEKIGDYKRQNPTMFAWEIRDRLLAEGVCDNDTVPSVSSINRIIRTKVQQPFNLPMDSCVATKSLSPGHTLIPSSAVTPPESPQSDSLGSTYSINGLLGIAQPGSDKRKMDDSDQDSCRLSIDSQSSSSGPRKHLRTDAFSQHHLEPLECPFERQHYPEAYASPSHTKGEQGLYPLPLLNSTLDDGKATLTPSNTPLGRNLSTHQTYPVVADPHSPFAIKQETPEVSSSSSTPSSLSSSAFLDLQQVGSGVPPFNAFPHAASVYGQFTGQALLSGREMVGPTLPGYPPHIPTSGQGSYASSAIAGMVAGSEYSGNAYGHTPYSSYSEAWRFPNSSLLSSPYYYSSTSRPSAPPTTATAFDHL
Sequence of Potassium channel subfamily K member 3 (Rattus norvegicus, UniProt O54912) (O54912 whole entry, the tested form may be a part): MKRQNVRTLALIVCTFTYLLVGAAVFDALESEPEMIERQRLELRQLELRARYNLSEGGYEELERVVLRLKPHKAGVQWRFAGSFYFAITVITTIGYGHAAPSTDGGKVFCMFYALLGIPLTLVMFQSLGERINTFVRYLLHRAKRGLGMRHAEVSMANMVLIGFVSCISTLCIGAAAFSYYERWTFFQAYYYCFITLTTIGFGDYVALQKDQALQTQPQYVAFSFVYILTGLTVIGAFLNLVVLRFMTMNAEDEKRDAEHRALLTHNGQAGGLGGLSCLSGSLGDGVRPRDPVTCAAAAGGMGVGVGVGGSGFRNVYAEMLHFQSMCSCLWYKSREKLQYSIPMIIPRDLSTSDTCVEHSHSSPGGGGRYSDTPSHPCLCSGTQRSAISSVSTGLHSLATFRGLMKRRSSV
Sequence of Potassium channel subfamily K member 9 (Q9NPC2 whole entry, the tested form may be a part): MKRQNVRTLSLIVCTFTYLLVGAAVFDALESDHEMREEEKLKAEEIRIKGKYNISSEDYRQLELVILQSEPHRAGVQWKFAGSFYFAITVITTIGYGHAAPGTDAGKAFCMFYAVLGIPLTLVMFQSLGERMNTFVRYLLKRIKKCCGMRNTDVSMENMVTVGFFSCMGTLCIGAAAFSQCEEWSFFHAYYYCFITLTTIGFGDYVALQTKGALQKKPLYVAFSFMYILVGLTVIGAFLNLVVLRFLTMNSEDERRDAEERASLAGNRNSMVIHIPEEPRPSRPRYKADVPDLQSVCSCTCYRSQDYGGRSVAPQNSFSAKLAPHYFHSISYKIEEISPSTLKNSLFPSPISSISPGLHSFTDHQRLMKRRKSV
Sequence of X-box-binding protein 1 (P17861 whole entry): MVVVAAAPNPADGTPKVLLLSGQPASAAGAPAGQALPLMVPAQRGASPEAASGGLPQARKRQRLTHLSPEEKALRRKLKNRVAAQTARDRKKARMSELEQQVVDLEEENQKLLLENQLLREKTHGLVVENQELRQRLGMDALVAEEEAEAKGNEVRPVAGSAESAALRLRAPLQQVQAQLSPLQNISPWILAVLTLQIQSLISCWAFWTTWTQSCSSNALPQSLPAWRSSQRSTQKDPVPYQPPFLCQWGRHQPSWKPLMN
Sequence of Potassium channel subfamily K member 3 (Homo sapiens, UniProt O14649) (O14649 whole entry): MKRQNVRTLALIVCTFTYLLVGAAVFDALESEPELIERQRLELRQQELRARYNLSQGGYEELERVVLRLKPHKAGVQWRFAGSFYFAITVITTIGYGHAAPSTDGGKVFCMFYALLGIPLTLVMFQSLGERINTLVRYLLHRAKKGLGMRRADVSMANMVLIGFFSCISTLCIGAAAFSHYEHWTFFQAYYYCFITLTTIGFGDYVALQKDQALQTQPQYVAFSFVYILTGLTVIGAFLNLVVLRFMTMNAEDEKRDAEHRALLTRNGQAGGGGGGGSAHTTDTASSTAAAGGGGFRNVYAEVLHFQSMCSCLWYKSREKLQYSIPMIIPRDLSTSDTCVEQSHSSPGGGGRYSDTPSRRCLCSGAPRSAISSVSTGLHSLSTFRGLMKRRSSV
Sequence of Protein Tat (P04608 whole entry): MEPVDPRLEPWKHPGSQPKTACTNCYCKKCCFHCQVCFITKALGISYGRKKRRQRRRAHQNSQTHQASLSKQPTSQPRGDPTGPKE

`CCOc1cccc(CNc2ccc(O)cc2)c1OCc1ccc(Cl)cc1Cl`: the IC50 in test [1] is 8.34 µM (not active); in test [3] it was 118 µM (active); on Protein Tat it was > 100 µM (inconclusive). At X-box-binding protein 1, the “Absolute IC50 (XBP1)” value stood at 10 µM. In addition, the CC50 in the test with Vero is 36.4 µM (active); in test [2], 85.7 µM (active); in test [4], 30.4 µM (active); in [5], > 40 µM (active).
As to `CN(C)C(=O)CSc1nc2cc(C(=O)c3ccccc3)ccc2[nH]1`, the EC50 in the test with BJ [6] is > 150 µM (not active); with BJ [7] it was 14.3 µM (inconclusive); with BJ [8] it was > 150 µM (inconclusive); in test [9] it was > 150 µM (not active). The AC50 in the test “cells [10]” was 35.9 µM (active); in “cells [11]”, 29.9 µM (active).
In the case of `CC1CCCCN1C(=O)c1cc2nc(-c3ccccc3)cc(-c3ccccc3)n2n1` (stereo not given), the CC50 in [12] was 15.6 µM (active). The half-maximal activity concentration (AC50) in test [13] was 1.13 µM (active). In the test “cells [14]”, the IC50 was 19.3 µM (active).
As to `COc1ccc(-c2nn(-c3ccccc3)cc2C(=O)Nc2nccs2)cc1`, the IC50 was > 100 µM (active) in [15], > 79 µM (inactive) in the test on H9c2, 9.49 µM (active) in test [16] and > 74.4 µM (inactive) in test [17].
In the case of `CCOc1ccccc1NC(=O)c1cccc(NC(=O)C2CCCC2)c1`, the IC50 in [18] is 1.84 µM (active); in test [19], 0.123 µM (active); in [20], 0.054 µM (active).
Regarding `Cc1ccc(-c2ccc([C@@H]3[C@@H]4CN(C(=O)Nc5ccc(C(F)(F)F)cc5)C[C@H]3N4)cc2)cc1`, the AC50 on Paired box protein Pax-8 was 3.06 µM (active); in test [21], 11.3 µM (active); in test [22], 6.73 µM (active); in test [23], 17 µM (active); in [24], 14 µM (active); in [25] it was 22.8 µM (active). Further, the AC50 in test [26] was 2.33 µM (active); in test [27] it was 2.72 µM (active).
Take `C[C@@H]1CN([C@@H](C)CO)C(=O)c2cc(NC(=O)Nc3ccc(C(F)(F)F)cc3)ccc2O[C@@H](C)CCCCO[C@@H]1CN(C)Cc1ccc2c(c1)OCO2`: the AC50 at Paired box protein Pax-8 is 5.64 µM (active); in test [28], 56.1 µM (active); in test [25] it was 57.3 µM (active).
